{
  "source": "patent US6485955B1",
  "about": "“Quiescent cell dipeptidyl peptidase: a novel cytoplasmic serine protease” (The Trustees of Tufts University, priority 1997, dated 2002)",
  "key": {"[1]": {"target": "QPP (Homo sapiens, UniProt Q9UHL4)", "experiment": "AlaProAFC cleavage by PBMC cytosolic preparation (QPP peptidase activity)", "format": "biochemical", "conditions": "for QPP inhibition (inhibitory profile): comparison with DPIV profile"}, "[2]": {"system": "peripheral blood mononuclear cells (PBMC)", "experiment": "Cell death in overnight cultures of freshly isolated PBMC", "conditions": "for number of dead cells / PCD induction in resting PBMC cultures: compared to media alone"}, "[3]": {"system": "CD11b+ monocytes", "experiment": "VbP-induced death of monocytes", "format": "cell-based, human"}, "[4]": {"system": "activated PBMC", "experiment": "Induced death of activated PBMC (PHA blasts) and long term cultured cells", "format": "cell-based, human", "description": "(§1) Methods. […] Sorted cell populations were >90% pure."}, "[5]": {"system": "purified T-cells (CD4+/CD8+)", "experiment": "VbP-induced death of purified resting T-cells", "format": "cell-based, human", "conditions": "for effect on VbP-mediated T-cell death: added with VbP, non-cycling T-cells", "description": "as §1"}, "[6]": {"system": "phosphatidylserine (PS) on the surface of cells", "experiment": "FITC-annexin V detection of surface phosphatidylserine", "format": "cell-based, human", "conditions": "cells treated with VbP"}, "[7]": {"system": "CD19+ B cells", "experiment": "VbP-induced death of B cells", "format": "cell-based, human"}, "[8]": {"system": "serum-starved, G0 phase fibroblasts", "experiment": "Apoptosis of serum-starved G0 fibroblasts transfected with QPP transgene", "format": "cell-based", "conditions": "compared to non-QPP transfected fibroblasts", "description": "The role of QPP in protecting quiescent (non-cycling) cells from death was confirmed in fibroblasts transfected with a QPP transgene sequence using standard techniques."}, "[9]": {"target": "DPIV (Homo sapiens, UniProt P27487)", "sequence (P27487 whole entry)": "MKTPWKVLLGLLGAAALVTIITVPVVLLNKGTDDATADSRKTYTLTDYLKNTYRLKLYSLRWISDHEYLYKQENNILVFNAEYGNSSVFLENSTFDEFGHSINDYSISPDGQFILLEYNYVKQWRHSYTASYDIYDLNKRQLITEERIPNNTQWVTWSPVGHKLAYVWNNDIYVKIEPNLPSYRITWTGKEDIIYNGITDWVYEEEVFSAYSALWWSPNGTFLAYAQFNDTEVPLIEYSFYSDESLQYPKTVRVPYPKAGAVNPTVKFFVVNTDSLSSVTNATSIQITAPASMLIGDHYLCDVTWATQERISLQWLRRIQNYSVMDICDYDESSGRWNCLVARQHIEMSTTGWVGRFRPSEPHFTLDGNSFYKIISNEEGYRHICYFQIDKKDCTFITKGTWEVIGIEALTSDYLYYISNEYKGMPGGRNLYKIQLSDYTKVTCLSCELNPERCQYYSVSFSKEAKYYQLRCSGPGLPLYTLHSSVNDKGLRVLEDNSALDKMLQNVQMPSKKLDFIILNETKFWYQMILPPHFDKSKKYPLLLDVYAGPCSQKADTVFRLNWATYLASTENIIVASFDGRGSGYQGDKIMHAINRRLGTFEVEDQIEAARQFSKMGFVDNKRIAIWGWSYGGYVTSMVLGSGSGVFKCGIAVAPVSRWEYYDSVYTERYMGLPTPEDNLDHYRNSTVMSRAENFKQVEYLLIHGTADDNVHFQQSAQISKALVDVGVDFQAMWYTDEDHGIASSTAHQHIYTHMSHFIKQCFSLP", "conditions": "cited from earlier work"}, "[10]": {"conditions": "PBMC cytosolic preparation, high concentrations"}},
  "note": "Like-named read-outs stand apart in the source and are kept apart here. Peptide text beside a SMILES is read from it. * marks the point of attachment. Cbz = O=C(OCc1ccccc1)*; CH2F = FC*",
  "data": [
    {"molecule": "(Z)-Ala-[CF═C]-Pro-NHO-Bz(4NO2) [L-125]", "values": [
      {"measurement": "QPP inhibition (inhibitory profile)", "setting": "[1]", "value": "did not inhibit QPP"}
    ]},
    {"molecule": "CC(C)[C@H](N)C(=O)N1CCC[C@H]1B(O)O", "note": "[VbP, Val-boroPro]", "values": [
      {"measurement": "time at which dead cells were apparent after addition", "setting": "[2]; PBMC cultures", "value": 4, "unit": "h"},
      {"measurement": "time to maximal death", "setting": "[2]; PBMC cultures", "value": "≤ 24", "unit": "h"},
      {"measurement": "maximal death", "setting": "[2]; PBMC cultures, within 24 hours", "value": "about 70%"},
      {"measurement": "number of dead cells / PCD induction in resting PBMC cultures", "setting": "[2]", "value": "striking increase in the number of dead cells"},
      {"measurement": "susceptibility to VbP-induced death", "setting": "[3]", "value": "resistant"},
      {"measurement": "susceptibility of activated PBMC to induced PCD", "setting": "[4]", "value": "resistant"},
      {"measurement": "susceptibility to VbP-induced PCD after return to non-cycling phase (G0)", "setting": "[4]; activated PBMC maintained in culture until G0", "value": "regain sensitivity"},
      {"measurement": "inhibition of cytosolic AlaProAFC cleaving enzymatic activity", "setting": "[1]; PBMC cytosolic preparation (110,000 g supernatant)", "value": "inhibited"},
      {"measurement": "QPP inhibition (inhibitory profile)", "setting": "[1]", "value": "most potent inhibitors"},
      {"measurement": "T-cell death in CD26+ versus CD26- resting T-cell subpopulations", "setting": "[5]; CD26+ and CD26- resting T-cells", "value": "to the same degree"},
      {"measurement": "susceptibility to VbP-induced death", "setting": "[5]; purified T-cells (CD4+/CD8+) vs whole PBMC", "value": "greater sensitivity than whole PBMC"},
      {"measurement": "amount of PS on the surface of cells (FITC-annexin V)", "setting": "[6]", "value": "time-dependent increase"},
      {"measurement": "susceptibility to VbP-induced death", "setting": "[7]", "value": "resistant"}
    ]},
    {"molecule": "NC(=O)CI", "note": "[IAA]", "values": [
      {"measurement": "inhibition of cytosolic AlaProAFC cleaving enzymatic activity", "setting": "[1]", "value": "partially inhibited"}
    ]},
    {"molecule": "CCN1C(=O)C=CC1=O", "note": "[NEM]", "values": [
      {"measurement": "inhibition of cytosolic AlaProAFC cleaving enzymatic activity", "setting": "[1]", "value": "partially inhibited"}
    ]},
    {"molecule": "NC(CCCCNC(=O)OCc1ccc([N+](=O)[O-])cc1)C(=O)N1CCSC1", "note": "(stereo not shown) [Lys-thiazolidide, NO2-Z-Lys-thiazolidide]", "values": [
      {"measurement": "QPP inhibition (inhibitory profile)", "setting": "[1]", "value": "most potent inhibitors"}
    ]},
    {"molecule": "COC(=O)C[C@H](NC(=O)[C@H](C)NC(=O)[C@@H](NC(=O)OCc1ccccc1)C(C)C)C(=O)CF", "note": "[Z-VADfmk] (Cbz-Val-Ala-Asp(OMe)-CH2F)", "values": [
      {"measurement": "effect on VbP-mediated T-cell death", "setting": "[5]", "value": "blocked"}
    ]},
    {"molecule": "CC(C)[C@@H](N)C(=O)N1CCC[C@H]1B(O)O", "note": "[d-Val-d-boroPro]", "values": [
      {"measurement": "number of dead cells / PCD induction in resting PBMC cultures", "setting": "[2]", "value": "inactive"}
    ]},
    {"molecule": "O=S(=O)(F)Cc1ccccc1", "note": "[PMSF]", "values": [
      {"measurement": "inhibition of cytosolic AlaProAFC cleaving enzymatic activity", "setting": "[1]; [10]", "value": "partially inhibited"}
    ]},
    {"molecule": "N=C(N)c1ccccc1", "note": "[benzamidine]", "values": [
      {"measurement": "inhibition of cytosolic AlaProAFC cleaving enzymatic activity", "setting": "[1]; [10]", "value": "partially inhibited"}
    ]},
    {"molecule": "recombinant QPP: recombinant quiescent cell post-prolyl dipeptidase polypeptide expressed from a transgene in fibroblasts", "values": [
      {"measurement": "apoptosis of quiescent fibroblasts", "setting": "[8]", "value": "inhibited apoptosis"}
    ]},
    {"molecule": "CC(=O)N[C@@H](CSC(=O)[C@]1([C@@H](O)C(C)C)NC(=O)[C@H](C)[C@@H]1O)C(=O)O", "note": "[lactacystin]", "values": [
      {"measurement": "number of dead cells / PCD induction in resting PBMC cultures", "setting": "[2]", "value": "does not induce PCD"},
      {"measurement": "susceptibility of activated PBMC to induced PCD", "setting": "[4]", "value": "susceptible"},
      {"measurement": "effect on VbP-mediated T-cell death", "setting": "[5]", "value": "neither the anti-Fas mAb M3 nor lactacystin had any effect"}
    ]},
    {"molecule": "Cc1ccc(S(=O)(=O)N[C@@H](CCCCN)C(=O)CCl)cc1", "note": "[TLCK]", "values": [
      {"measurement": "inhibition of cytosolic AlaProAFC cleaving enzymatic activity", "setting": "[1]", "value": "partially inhibited"}
    ]},
    {"molecule": "NC(CCCCNC(=O)OCc1ccc([N+](=O)[O-])cc1)C(=O)N1CCCCC1", "note": "(stereo not shown) [Lys-piperidide, NO2-Z-Lys-piperidide]", "values": [
      {"measurement": "DPIV inhibition", "setting": "[9]", "value": "does not inhibit DPIV"},
      {"measurement": "QPP inhibition (inhibitory profile)", "setting": "[1]", "value": "did inhibit QPP at higher concentrations than Lys-thiazolidide"}
    ]}
  ]
}
